Here are results for four compounds from patent US20080069860A1, “HYPERPHOSPHATEMIA IN DOMESTIC ANIMALS: COMPOSITIONS AND METHODS OF TREATMENT” (priority 2005, published 2008).

Data set [1] concerns beagle dogs. Kind of data set: Dog study, urine phosphate excretion after oral capsules. In kind it is in vivo. The note with it: 2250 mg elemental lanthanum twice daily, urine approximately 24 hours after dosing.
For data set [2], the system named is Sprague-Dawley rats underwent 5/6th nephrectomy. Briefly: In vivo study in 5/6th nephrectomy rats, urine phosphorus excretion. Particulars: 314 mg elemental lanthanum/kg/day oral, once daily for 14 days, compared to untreated rats. The method, then: Groups of six adult Sprague-Dawley rats underwent 5/6th nephrectomy in two stages over a period of 2 weeks and were then allowed to recover for a further two weeks prior to being randomized for treatment. The groups received vehicle (0.5% w/v carboxymethyl cellulose), or lanthanum oxycarbonate suspended in vehicle, once daily for 14 days by […] (10 ml/kg/day). The dose delivered 314 mg elemental lanthanum/kg/day. Dosing was carried out immediately before the dark (feeding) cycle on each day. Urine samples (24 hours) were collected prior to surgery, prior to the commencement of treatment, and twice weekly during the treatment period. Volume and phosphorus concentration were measured.
Feeding—During the acclimatization and surgery period, the animals were given Teklad phosphate sufficient diet (0.5% Ca, 0.3%P; Teklad No. TD85343), ad libitum. At the beginning of the treatment period, animals were pair fed based upon the average food consumption of the vehicle-treated animals the previous week.
5/6 Nephrectomy—After one week of acclimatization, all animals were subjected to 5/6 nephrectomy surgery. The surgery was performed in two stages. First, the two lower branches of the left renal artery were ligated. One week later, a right nephrectomy was performed. […]

The test system of data set [3] is dogs. Briefly: Palatability study in dogs. In kind it is in vivo. Particulars: 9 dogs, during hours post meal. The source says: Lanthanum oxycarbonate was mixed with wet and dry dog food and presented to 9 different dogs, almost all over 40 pounds.

For the compound `O=C([O-])[O-].[La+3].[OH-]` [compound A, LaCO3OH], the “urine phosphate excretion, a marker of phosphorous binding” value in data set [1] was “reduction of urine phosphate excretion”.
Still for that read-out and setting: then `O=C([O-])[O-].[La+3].[La+3].[O-2].[O-2]` [compound B, La2O2CO3], with “reduction of urine phosphate excretion”.
For `O=C([O-])[O-].[La+3].[OH-]` [lanthanum carbonate hydroxide], in data set [2], the “phosphorus excretion (urine), a marker of dietary phosphorus binding” value is reported as “decrease in phosphorus excretion”.
Consider lanthanum oxycarbonate, for which the “signs of nausea, vomiting, bloating or flatus” value in data set [3] is reported as “None of the dogs exhibited signs of nausea, vomiting, bloating or flatus”. Further, the “phosphorus excretion (urine), a marker of dietary phosphorus binding” value in data set [2] is given as “decrease in phosphorus excretion”.
